Measurements taken from patent US20190307783A1, “USE OF ANTIVIRALS TO INHIBIT PROTOZOAN VIRUSES” (priority 2016, published 2019).
“Also recorded” adds a separate entry of the source.

Key:
dsRNA LRV1 genome = test: Quantitative anti-dsRNA slot blots of LRV1 genome; format: cell-based, Leishmania RNA virus 1 in Leishmania guyanensis; conditions: LgyLRV1+
Method: RNA slot blot analysis was performed as described previously (36).

LbrLRV1 = test: LRV1 inhibition in L. braziliensis strains bearing LRV1; format: cell-based, Leishmania RNA virus 1 in Leishmania braziliensis; conditions: Leishmania braziliensis
Method: For 2CMA, the EC50 was estimated to be ˜3 μM for LRV1 capsid inhibition, versus >100 μM for parasite growth (FIG. 11A), at least 30-fold selective. […] Several studies were carried out with L. braziliensis strains bearing LRV1 (12). The 2CMA EC50 for LbrLRV1 was similar to that seen with LgyLRV1 (˜3 μM); however, parasites were somewhat more susceptible to growth inhibition (EC50 50-100 μM). Because the available quantities of 7d2CMA were limiting and both compounds were similarly selective for L. guyanensis, we focused thereafter on 2CMA.
Most studies were performed using luciferase-expressing transfectants of L. guyanensis (MHOM/BR/78/M4147) described previously [LRV1^+ LgyM4147/SSU:IR2SAT-LUC(b)c3 and LRV^−LgyM4147/pX63HYG/SSU:IR2SAT-LUC(b)c4] (54); these lines are termed LgyLRV1^+ and LgyLRV1^−, respectively. Two strains of LRV1^+L. braziliensis were examined: LEM2780 (MHOM/BO/90/CS) and LEM3874 (MHOM/BO/99/IMT252 no. 3) (12). Parasites were grown in Schneider's media (Sigma Aldrich, St. Louis, Mo., USA) prepared according to the supplier's instructions with pH adjusted to 6.5 and supplemented with 0.76 mM hemin, 2 μg/mL biopterin, 50 U/mL penicillin, 50 μg/mL streptomycin, and 10% (vol/vol) heat-inactivated FBS. Cell concentrations were determined using a Coulter Counter ([…], Indianapolis, Ind., USA).

Lgy LRV1 RDRP = Lgy LRV1 RDRP (Leishmania RNA virus 1 - 4, UniProt Q02382); test: RDRP assay of purified virions, [α-32P]UTP incorporation; format: biochemical, Leishmania RNA virus 1 (Lgy strain M4147); conditions: concentrations up to 1000 μM; listed as 2CMA
Method: RDRP assays were carried out with LRV1 virions purified from Lgy strain M4147 by an established cesium chloride (CsCl) equilibrium ultracentrifugation procedure {Widmer, 1989; Widmer, 1990}. Following separation, virus particles were detected and quantified by their reactivity with an anti-capsid antibody (FIG. 21). We reproducibly observed three overlapping ‘peaks’, designated low-, medium-, and high-density (LD, MD and HD) in order of increasing density. […] The densities of the Lgy LRV1 LD, MD and HD peaks were 1.29, 1.36 and 1.41 g/mL, in good agreement with the densities of L-A virus particles bearing ssRNA- and dsRNA- (1.31 and 1.41 g/mL, respectively) {Esteban, 1986}. […]
To measure RDRP activity, purified virions were allowed to incorporate [α-^32P]UTP in the presence of the remaining nucleoside triphosphates for 1 hour, a time chosen to allow one round of transcription or replication of the viral genome {Widmer, 1990}. RNA was purified and separated by native gel electrophoresis, and the products were visualized and quantified. […]
RDRP activity of purified virions was measured using an [α-^32P]UTP incorporation assay described previously{Widmer, 1990}. […] The standards lane was excised and stained with ethidium bromide, while the radiolabeled products were detected by exposing an imaging plate for 24 hours and reading it with a FLA-5100 phosphoimager (Fujifilm, Tokyo, Japan). […]

[1] = tested on: LRV1 (LgyLRV1 capsid levels); conditions: from Kuhlmann, 2017; cited from earlier work
[2] = animal models; cited from earlier work

Sequence of Lgy LRV1 RDRP (Q02382 whole entry): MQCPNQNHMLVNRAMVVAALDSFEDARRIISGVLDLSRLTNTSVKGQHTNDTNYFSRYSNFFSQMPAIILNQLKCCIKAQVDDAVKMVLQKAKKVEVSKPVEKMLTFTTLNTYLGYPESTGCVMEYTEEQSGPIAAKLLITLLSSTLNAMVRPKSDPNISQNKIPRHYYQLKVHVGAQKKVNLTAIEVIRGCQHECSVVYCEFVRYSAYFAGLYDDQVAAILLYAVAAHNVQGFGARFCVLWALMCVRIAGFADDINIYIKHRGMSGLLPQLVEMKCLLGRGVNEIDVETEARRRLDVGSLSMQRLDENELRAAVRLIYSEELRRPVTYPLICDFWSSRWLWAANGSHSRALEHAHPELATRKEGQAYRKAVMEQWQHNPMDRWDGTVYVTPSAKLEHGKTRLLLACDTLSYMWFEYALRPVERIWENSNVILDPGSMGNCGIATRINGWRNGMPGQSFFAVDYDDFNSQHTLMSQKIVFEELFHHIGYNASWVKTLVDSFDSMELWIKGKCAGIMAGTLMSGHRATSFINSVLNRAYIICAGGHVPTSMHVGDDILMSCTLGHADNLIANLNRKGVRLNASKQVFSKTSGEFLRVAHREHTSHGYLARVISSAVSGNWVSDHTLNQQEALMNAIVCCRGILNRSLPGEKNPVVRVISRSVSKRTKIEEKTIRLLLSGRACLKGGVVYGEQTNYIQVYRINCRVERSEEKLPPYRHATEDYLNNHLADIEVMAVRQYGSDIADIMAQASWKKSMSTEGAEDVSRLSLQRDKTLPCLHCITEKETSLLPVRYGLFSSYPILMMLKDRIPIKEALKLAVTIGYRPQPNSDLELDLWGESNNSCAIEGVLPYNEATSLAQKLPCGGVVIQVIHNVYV

C[C@@]1(O)[C@H](O)[C@@H](CO)O[C@H]1n1cnc2c(N)ncnc21 [2′C-methyadenosine, 2′-C-methyladenosine]
EC50 (dsRNA LRV1 genome): ~1000 nM | EC50 (LbrLRV1): ~3000 nM | Inhibition of RDRP activity, in words (Lgy LRV1 RDRP): did not measurably inhibit; also recorded: completely inactive | Concentration that eradicates / completely inhibits LRV1 replication [1]: 10 µM | Serum half-life [2]: 18 min
